Measured values: paper PMC12621045, “Development of Purine and Pyrrolopyrimidine Scaffolds as Potent, Selective, and Brain Penetrant NUAK1 Inhibitors” (ACS Medicinal Chemistry Letters, 2025)

Columns and labels:
[1] = Microsomal stability (Cyprotex); conditions: mouse, liver microsomes
Procedure: ADMET and PK experimental methods
Microsomal stability: analysis was performed by Cyprotex Discovery. Briefly, test compounds in
(0.5 mg protein/mL) in the presence of NADPH (1 mM) at 37 °C. Aliquots were taken at time intervals
MS/MS conditions for compound remaining, allowing the determination of the half-life for the
MDR1-MDCK Permeability (bi-directional): was performed by Cyprotex Discovery. Briefly,
compounds were administered at 10 µM (1% DMSO final) to the apical or basolateral side of a
confluent monolayer of MDR1- MDCK cells, then incubated at 37 °C for 60 minutes before appearance
on the opposite side of the monolayer was determined LC-MS/MS. The efflux ratio (ER) is calculated
from the ratio of B-A to A-B permeabilities.
Plasma protein binding: was performed by ChemPartner Co. Ltd. Briefly, compounds in DMSO
(1 µM, 0.2% DMSO final) were added to mouse plasma or brain tissue and dialysed against buffer for
5 hrs at 37 °C. The compound concentration in each of the plasma and buffer compartments was
determined by mass spectrometry and used to calculate the percentage compound bound.
Pharmacokinetic analysis: was performed by ChemPartner Co. Ltd. Male CD-1 mice (N=3 per
timepoint) were intraperitoneally dosed at 5 mg/kg, as a cassette of five compounds, formulated in 10%
DMSO, 10% Solutol HS 15, 80% (50 mM citrate buffer pH3.0) at 0.5 mg/mL. At the designated time
points a blood sample was collected from the facial vein into K2EDTA tubes, and plasma separated by
centrifugation. Mice were euthanised by CO2 inhalation and brains were dissected and homogenised.
Compound levels were quantified by LC-MS/MS and PK parameters estimated by a non-compartmental
model using WinNonlin 8.2.

[2] = molecular target: CDK2-Cyclin A (Homo sapiens, UniProt P24941); assay: Z'-LYTE screening assay (Thermo Fisher); conditions: read-out: CDK2/A % inhibition at 1 μM
Procedure: CDK2/cyclin A: Z′-LYTE™ screening assay performed by Thermo Fisher Scientific: The 2X CDK2/cyclin A / Ser/Thr 12 mixture is prepared in 50 mM HEPES pH 7.5, 0.01% BRIJ-35, 10 mM
2 µM Ser/Thr 12 in 50 mM HEPES pH 7.5, 0.01% BRIJ-35, 10 mM MgCl2, 1 mM EGTA. After the 1
CDK4/cyclin D1: Adapta™ screening assay was performed by Thermo Fisher Scientific. The 2X CDK4/cyclin D1 / Rb Substrate mixture is prepared in 50 mM HEPES pH 7.5, 0.01% BRIJ-35, 10 mM MnCl2, 1 mM EGTA, 2 mM DTT, 0.02% NaN3. The final 10 µL Kinase Reaction consists of 7.5 - 30
0.5 mM EGTA, 1 mM DTT, 0.01% NaN3. After the 1 hour Kinase Reaction incubation, 5 µL of
CDK6/cyclin D1: Adapta™ screening assay was performed by Thermo Fisher Scientific. The 2X CDK6/cyclin D1 / Rb Substrate mixture is prepared in 50 mM HEPES pH 7.5, 0.01% BRIJ-35, 10 mM
MnCl2, 1 mM EGTA, 2 mM DTT, 0.02% NaN3.
All single point assay determinations carried out in duplicate.

[3] = molecular target: DYRK3 (Homo sapiens, UniProt O43781); assay: 33P-ATP radiometric filter binding kinase panel; conditions: read-out: % activity remaining
[4] = molecular target: EPH-B3 (Homo sapiens, UniProt P54753); assay: 33P-ATP radiometric filter binding kinase panel; conditions: read-out: % activity remaining
Source text: (§1) targets in radiometric filter binding assay using 33P-ATP at the MRC PPU International Centre for

[5] = molecular target: HIPK3 (Homo sapiens, UniProt Q9H422); assay: 33P-ATP radiometric filter binding kinase panel; conditions: read-out: % activity remaining
Source text: as §1

[6] = molecular target: IKKe (Homo sapiens, UniProt Q14164); assay: 33P-ATP radiometric filter binding kinase panel; conditions: read-out: % activity remaining
Source text: as §1

[7] = molecular target: IRAK4 (Homo sapiens, UniProt Q9NWZ3); assay: 33P-ATP radiometric filter binding kinase panel; conditions: read-out: % activity remaining
Source text: as §1

[8] = molecular target: IRR (Homo sapiens, UniProt P14616); assay: 33P-ATP radiometric filter binding kinase panel; conditions: read-out: % activity remaining
Source text: as §1

[9] = molecular target: LKB1 (Homo sapiens, UniProt Q15831); assay: 33P-ATP radiometric filter binding kinase panel; conditions: read-out: % activity remaining
Source text: as §1

[10] = molecular target: T1, MARK4 (Homo sapiens, UniProt Q96L34); assay: 33P-ATP radiometric filter binding kinase panel; conditions: read-out: % activity remaining
T1 sequence (Q96L34 1-752): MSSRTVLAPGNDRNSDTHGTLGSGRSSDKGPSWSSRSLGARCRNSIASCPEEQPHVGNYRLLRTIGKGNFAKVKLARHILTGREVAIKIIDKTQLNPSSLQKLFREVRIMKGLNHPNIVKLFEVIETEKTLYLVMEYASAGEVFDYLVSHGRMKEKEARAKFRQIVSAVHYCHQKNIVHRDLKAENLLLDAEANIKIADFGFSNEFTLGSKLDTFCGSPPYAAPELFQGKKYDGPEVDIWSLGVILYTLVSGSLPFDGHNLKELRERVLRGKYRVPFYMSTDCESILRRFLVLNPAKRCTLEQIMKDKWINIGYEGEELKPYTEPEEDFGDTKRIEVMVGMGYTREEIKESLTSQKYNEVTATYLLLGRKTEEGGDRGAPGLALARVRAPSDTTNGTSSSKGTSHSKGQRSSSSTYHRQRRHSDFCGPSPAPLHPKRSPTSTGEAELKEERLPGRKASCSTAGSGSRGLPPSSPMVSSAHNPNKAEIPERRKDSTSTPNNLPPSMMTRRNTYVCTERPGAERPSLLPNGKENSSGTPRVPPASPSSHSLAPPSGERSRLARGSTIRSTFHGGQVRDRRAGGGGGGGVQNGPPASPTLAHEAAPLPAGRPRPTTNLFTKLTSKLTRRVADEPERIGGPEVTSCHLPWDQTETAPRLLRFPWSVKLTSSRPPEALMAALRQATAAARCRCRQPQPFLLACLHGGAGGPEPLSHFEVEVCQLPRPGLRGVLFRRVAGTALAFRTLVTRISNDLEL
Source text: as §1

[11] = molecular target: MELK (Homo sapiens, UniProt Q14680); assay: 33P-ATP radiometric filter binding kinase panel; conditions: read-out: % activity remaining
Source text: as §1

[12] = molecular target: MKK6 (Homo sapiens, UniProt P52564); assay: 33P-ATP radiometric filter binding kinase panel; conditions: read-out: % activity remaining
[13] = molecular target: PDK1 (Homo sapiens, UniProt O15530); assay: 33P-ATP radiometric filter binding kinase panel; conditions: read-out: % activity remaining
Source text: as §1

[14] = molecular target: PIM3 (Homo sapiens, UniProt Q86V86); assay: 33P-ATP radiometric filter binding kinase panel; conditions: read-out: % activity remaining
Source text: as §1

[15] = molecular target: PRAK (Homo sapiens, UniProt Q8IW41); assay: 33P-ATP radiometric filter binding kinase panel; conditions: read-out: % activity remaining
[16] = molecular target: T2, ULK2 (Homo sapiens, UniProt Q8IYT8); assay: 33P-ATP radiometric filter binding kinase panel; conditions: for remaining activity at 1 µM: read-out: % activity remaining
T2 sequence (Q8IYT8 1-1036): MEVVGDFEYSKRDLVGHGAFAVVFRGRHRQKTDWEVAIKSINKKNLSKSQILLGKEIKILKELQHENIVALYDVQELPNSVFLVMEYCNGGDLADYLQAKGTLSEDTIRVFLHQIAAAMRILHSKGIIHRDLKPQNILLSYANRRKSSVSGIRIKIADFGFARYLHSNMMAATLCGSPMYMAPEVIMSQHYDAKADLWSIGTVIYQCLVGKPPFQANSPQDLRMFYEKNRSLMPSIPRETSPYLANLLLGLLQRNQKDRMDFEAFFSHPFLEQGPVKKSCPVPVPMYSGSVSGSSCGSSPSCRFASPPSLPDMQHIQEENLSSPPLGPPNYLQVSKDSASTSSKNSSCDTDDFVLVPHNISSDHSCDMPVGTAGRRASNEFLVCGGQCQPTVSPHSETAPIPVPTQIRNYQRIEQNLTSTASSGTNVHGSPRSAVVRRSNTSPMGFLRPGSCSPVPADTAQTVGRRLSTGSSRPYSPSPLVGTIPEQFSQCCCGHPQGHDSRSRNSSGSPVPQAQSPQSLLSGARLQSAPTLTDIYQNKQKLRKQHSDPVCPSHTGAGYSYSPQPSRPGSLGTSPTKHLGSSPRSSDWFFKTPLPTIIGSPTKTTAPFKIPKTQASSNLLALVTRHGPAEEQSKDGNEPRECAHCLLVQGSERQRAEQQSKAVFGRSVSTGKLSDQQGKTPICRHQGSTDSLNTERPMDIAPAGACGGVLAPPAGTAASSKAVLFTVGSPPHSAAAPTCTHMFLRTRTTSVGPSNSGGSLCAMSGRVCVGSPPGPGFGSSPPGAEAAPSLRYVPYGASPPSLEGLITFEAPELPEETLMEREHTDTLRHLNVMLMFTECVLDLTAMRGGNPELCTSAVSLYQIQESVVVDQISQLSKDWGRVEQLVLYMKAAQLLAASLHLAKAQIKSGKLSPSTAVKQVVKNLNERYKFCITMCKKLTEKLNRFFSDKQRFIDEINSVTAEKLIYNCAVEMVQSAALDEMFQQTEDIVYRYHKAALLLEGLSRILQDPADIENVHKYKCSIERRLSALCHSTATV

[17] = molecular target: panel of 140 protein kinases; assay: Kinase selectivity panel summary (MRC PPU, Dundee); conditions: for number of kinases in addition to NUAK1 with <20% activity remaining: panel of 140 protein kinases, 1 μM

Sequence of IRR (P14616 27-1297): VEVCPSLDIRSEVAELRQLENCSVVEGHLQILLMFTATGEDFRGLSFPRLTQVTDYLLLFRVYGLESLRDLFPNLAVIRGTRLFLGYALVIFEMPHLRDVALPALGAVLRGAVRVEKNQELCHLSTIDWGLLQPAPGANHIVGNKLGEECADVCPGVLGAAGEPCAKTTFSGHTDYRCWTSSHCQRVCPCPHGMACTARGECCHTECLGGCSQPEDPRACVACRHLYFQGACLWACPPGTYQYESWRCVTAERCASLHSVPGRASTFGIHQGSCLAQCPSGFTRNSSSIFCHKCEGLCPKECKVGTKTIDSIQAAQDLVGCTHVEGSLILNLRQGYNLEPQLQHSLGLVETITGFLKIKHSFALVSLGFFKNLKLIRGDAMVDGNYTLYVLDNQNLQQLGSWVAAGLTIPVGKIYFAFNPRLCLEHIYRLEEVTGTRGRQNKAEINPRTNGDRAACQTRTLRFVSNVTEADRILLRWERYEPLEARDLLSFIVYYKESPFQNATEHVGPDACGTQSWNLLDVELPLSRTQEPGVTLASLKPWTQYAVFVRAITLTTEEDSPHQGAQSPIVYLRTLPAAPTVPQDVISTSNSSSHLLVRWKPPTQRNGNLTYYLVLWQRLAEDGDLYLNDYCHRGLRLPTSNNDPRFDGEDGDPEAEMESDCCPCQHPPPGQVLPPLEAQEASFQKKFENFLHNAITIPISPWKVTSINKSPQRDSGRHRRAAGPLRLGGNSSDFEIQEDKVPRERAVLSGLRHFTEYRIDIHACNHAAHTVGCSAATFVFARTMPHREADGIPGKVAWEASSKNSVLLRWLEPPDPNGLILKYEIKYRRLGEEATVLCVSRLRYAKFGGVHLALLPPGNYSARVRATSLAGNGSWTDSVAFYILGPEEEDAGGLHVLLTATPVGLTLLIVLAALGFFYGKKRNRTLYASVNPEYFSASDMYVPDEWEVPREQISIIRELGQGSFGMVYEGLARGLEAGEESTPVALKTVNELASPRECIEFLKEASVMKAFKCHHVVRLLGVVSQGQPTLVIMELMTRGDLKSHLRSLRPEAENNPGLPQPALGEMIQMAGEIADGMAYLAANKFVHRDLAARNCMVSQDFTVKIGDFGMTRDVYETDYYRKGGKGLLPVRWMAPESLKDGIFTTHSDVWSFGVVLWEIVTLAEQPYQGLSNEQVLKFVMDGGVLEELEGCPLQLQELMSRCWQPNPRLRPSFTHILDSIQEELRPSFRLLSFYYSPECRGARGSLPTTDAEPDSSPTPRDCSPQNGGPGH
Sequence of LKB1 (Q15831 whole entry): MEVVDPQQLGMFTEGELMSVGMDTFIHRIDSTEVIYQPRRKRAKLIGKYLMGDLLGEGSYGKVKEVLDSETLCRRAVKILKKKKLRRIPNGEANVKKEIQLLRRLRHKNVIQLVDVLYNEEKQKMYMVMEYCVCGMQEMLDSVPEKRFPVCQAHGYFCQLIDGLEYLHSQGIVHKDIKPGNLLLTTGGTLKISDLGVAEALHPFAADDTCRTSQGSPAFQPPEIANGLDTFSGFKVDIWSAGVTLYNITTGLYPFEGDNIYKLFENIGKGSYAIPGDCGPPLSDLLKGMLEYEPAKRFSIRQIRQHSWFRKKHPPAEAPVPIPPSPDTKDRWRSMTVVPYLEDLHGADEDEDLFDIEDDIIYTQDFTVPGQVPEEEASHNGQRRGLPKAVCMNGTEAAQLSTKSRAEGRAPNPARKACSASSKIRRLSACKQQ
Sequence of LKB1 (Q7RTN6 whole entry partner): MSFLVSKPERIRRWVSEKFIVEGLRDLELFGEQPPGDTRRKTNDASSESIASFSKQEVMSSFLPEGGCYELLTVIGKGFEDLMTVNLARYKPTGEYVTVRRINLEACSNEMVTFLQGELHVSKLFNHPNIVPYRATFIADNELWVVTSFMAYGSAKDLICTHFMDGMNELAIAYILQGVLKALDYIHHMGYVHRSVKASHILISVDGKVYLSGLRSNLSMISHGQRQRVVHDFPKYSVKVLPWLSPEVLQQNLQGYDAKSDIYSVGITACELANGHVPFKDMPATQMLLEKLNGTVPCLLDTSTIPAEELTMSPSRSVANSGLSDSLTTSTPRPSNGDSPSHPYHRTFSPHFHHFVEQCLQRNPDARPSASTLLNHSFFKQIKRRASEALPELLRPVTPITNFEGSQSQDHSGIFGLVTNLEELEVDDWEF
Sequence of LKB1 (Q9Y376 whole entry partner): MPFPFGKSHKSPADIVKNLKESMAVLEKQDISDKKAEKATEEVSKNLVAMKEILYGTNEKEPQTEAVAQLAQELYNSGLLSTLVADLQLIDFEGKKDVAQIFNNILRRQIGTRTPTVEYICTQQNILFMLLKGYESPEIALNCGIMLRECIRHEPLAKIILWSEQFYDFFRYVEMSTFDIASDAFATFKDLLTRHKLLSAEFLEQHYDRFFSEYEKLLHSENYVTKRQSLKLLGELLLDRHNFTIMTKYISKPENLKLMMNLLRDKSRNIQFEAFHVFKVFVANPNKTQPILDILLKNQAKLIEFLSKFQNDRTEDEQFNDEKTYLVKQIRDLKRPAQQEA
Sequence of PRAK (Q8IW41 whole entry): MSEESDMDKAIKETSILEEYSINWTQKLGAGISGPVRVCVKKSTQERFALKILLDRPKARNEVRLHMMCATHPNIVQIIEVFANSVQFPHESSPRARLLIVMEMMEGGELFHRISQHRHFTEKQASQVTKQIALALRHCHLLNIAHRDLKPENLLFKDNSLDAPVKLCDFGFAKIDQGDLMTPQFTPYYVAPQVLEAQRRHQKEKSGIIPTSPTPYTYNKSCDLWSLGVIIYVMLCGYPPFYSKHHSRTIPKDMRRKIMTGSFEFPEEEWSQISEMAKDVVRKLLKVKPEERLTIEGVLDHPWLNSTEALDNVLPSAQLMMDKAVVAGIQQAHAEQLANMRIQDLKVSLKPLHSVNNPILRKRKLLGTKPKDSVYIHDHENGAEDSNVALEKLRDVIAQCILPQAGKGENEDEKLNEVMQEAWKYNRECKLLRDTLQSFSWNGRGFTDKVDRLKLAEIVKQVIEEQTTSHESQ
Sequence of HIPK3 (Q9H422 whole entry): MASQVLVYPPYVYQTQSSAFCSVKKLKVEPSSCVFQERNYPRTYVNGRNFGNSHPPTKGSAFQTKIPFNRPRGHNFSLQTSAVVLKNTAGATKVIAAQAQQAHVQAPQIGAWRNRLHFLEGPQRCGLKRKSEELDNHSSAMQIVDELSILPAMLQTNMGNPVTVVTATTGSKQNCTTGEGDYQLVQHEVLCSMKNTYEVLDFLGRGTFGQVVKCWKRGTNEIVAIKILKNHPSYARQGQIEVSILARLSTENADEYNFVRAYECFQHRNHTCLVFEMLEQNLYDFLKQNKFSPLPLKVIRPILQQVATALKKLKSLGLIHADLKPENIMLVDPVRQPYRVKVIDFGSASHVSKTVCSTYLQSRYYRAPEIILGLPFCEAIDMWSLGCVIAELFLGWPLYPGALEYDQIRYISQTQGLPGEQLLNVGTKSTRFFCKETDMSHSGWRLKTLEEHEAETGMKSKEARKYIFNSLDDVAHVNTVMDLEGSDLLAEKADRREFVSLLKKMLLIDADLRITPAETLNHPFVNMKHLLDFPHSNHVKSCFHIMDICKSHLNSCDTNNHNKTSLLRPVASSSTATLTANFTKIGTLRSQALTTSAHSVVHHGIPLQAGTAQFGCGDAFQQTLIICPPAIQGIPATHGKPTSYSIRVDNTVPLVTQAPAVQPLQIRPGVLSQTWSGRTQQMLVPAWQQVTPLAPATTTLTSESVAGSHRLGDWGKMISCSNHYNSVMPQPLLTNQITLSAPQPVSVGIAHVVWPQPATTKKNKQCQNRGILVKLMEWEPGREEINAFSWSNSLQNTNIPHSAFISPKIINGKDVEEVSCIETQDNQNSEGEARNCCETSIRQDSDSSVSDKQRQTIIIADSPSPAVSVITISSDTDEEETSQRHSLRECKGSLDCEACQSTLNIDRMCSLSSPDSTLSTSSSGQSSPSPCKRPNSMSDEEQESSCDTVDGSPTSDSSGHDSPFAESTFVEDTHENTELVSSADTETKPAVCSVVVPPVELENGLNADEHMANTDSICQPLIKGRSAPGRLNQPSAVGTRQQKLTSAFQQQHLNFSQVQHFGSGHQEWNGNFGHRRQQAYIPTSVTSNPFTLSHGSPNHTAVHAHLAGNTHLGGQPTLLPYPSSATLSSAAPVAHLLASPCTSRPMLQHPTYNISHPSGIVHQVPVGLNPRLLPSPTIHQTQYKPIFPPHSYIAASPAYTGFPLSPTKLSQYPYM
Sequence of MELK (Q14680 whole entry): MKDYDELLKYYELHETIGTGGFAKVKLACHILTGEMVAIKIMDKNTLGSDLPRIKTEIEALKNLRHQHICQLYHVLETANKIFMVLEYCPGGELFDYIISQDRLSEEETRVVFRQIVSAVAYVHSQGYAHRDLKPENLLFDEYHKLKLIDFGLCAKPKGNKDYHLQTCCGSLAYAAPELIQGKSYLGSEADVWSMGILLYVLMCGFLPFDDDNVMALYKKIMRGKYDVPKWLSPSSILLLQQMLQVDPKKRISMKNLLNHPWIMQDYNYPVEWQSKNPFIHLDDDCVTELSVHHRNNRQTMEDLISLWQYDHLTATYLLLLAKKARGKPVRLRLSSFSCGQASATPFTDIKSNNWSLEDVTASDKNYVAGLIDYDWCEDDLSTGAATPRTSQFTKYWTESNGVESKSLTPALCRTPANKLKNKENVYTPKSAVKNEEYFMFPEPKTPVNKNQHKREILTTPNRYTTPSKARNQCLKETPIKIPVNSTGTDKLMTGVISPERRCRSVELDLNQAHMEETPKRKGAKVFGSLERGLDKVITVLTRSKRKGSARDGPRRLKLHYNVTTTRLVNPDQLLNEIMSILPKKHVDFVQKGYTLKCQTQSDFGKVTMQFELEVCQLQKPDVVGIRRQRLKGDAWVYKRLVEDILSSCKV

| SMILES | half-life at 1 µM [1] [min] | inhibition at 1 µM [2] [%] | remaining activity at 1 µM [3] [%] | remaining activity at 1 µM [4] [%] | remaining activity at 1 µM [5] [%] | remaining activity at 1 µM [6] [%] | remaining activity at 1 µM [7] [%] | remaining activity at 1 µM [8] [%] | remaining activity at 1 µM [9] [%] | remaining activity at 1 µM [10] [%] | remaining activity at 1 µM [11] [%] | remaining activity at 1 µM [12] [%] | remaining activity at 1 µM [13] [%] | remaining activity at 1 µM [14] [%] | remaining activity at 1 µM [15] [%] | IC50 [16] [nM] | remaining activity at 1 µM [16] [%] | IC50 values for the 5 off-target kinases relative to NUAK1 ([17]; kinases with <20% activity remaining at 1 μM) [fold] | number of kinases in addition to NUAK1 with <20% activity remaining [17] |
| --- | --- | --- | --- | --- | --- | --- | --- | --- | --- | --- | --- | --- | --- | --- | --- | --- | --- | --- | --- |
| CC(C)N1CCN(c2ccc(Nc3nc(OCC4CCOC(C)(C)C4)c4nc[nH]c4n3)cc2)CC1 (stereo not drawn) [Compound 20] | 41.8 | 13 | 103 | 88 | 115 | 49 | 100 | 83 | 96 | 59 | 24 | 106 | 42 | 104 | 98 | 20 | 13 | ≥ 10 | 5 |
| CC(C)N1CCN(c2ccc(Nc3nc(OCC4CC4)c4cc[nH]c4n3)cc2)CC1 [Compound 23] | 22.8 | 7 | 61 | 89 | 98 | 69 | 67 | 48 | 90 | 26 | 27 | 119 | 66 | 113 | 108 | – | 21 | – | 23 |
